Source: patent US20070244009A1, “Agent for Inhibiting Bolting Induction and/or Floral-Bud Differentiation in Plants” (National University Corporation Hokkaido Universit, priority 2004, published 2007)
“Also recorded” adds a separate entry of the source.

What was measured:
potato [1] = settings: culture of a single node section of a potato stem; cited from earlier work
[2] = system: spinach (Spinacia oleracea L.); experiment: Floral differentiation of spinach after foliar spraying; assay type: in vivo; settings: 10^-3 M foliar spray; for Floral Differentiation Rate (%) Average: mean of three tests
Description: (§1) In other words, while they searched for the substance having bolting induction inhibition and/or floral differentiation inhibition activities, they examine the effect of theobroxide on stem elongation and differentiation of floral-buds in spinach (long-day plant), after spraying theobroxide on the surfaces of spinach leaves. The day-length conditions examined were long-day (16 hours-light period, 8 hours-dark period), and short-day (10 hours-light period, 14 hours-dark period). The concentration of theobroxide for foliar application is set at 10^−3 M, and testing was started after a preliminary growth (two weeks, long-day condition). The spraying condition was that 5 ml of the solution was sprayed over four weeks every two days after the preliminary growth. As the results, under the short-day condition (bolting non-inducing condition), no difference was observed when compared to the control. Under the long-day condition (bolting induction and floral differentiation condition), the stem elongation of the theobroxide treated plants was suppressed 37% in the fourth week, when compared to that of the control.
(§2) Before the test, spinach was grown for 5 weeks in a growth chamber (NK Systems, Biotron NC350), under a short-day (SD) condition (light period-10 hours/dark period-14 hours) with a peat moss/Pearlite mixture (1:1.5, v/v). A test solution was sprayed on leaves every two days. Water and Hyponex in liquid form (manufactured by Hyponex Japan Co.) were given to the plants every two days and once a week, respectively. The long-day (LD) and short-day (SD) photoperiodic cycles were 16-hour light period/8-hour dark period, and 10-hours light period/14-hour dark period, respectively. The growth chamber was equipped with 20 fluorescent lamps (NEC FL40SEX-N-HG) to provide a light intensity of 90 μmol^−2s^−1, and set at 25 degrees centigrade and the relative humidity of 60%. The test used ten plants for each processing, and was repeated at least three times.
(§3) The theobroxide for the test was isolated from the incubation filtrate of Lasiodiplodia theobromae. The data of NMR, RI and MS were compared with the standard one and their structures were confirmed. Theobroxide was dissolved in distilled water that includes Tween 20 (100 ppm) to adjust its concentration to 10^−3M. To the plants for the control, the same amount of distilled water including 100 ppm of Tween 20 was given. The two kinds of solution were given to leaves of the plants, the total of 5 ml per plant, every two days, using plastic spray bottles. After planting them in advance, 20 boxes were transferred to the LD condition for a LD treatment (10 boxes of which was for control, and the other 10 boxes for the theobroxide treatment). After planting them in advance, 20 boxes were left under the SD for a SD treatment as before (10 boxes of which is for the control, and the other 10 boxes for theobroxide treatment). Stem heights from the bases of stems to the tip of the stems or the inflorescence were measured (Plant Physiol.: 821-827,1971).
In addition, in the tests shown in Table 1, plants were grown under a long-day condition for six weeks. The theobroxide treatment was started after they were transferred to the long-day condition. After six weeks, the plants were collected, and the number of the plants in which floral differentiation took place was counted.

morning glory [3] = settings: in vivo; cited from earlier work
morning glory [4] = settings: solution sprayed to leaves of morning glory, non-inducing conditions; cited from earlier work
[5] = system: spinach (Spinacia oleracea L.); experiment: Stem elongation (bolting) of spinach after foliar spraying; assay type: in vivo
Description: as §1, §2
as §3, with “After planting them in advance, 20 boxes were transferred to the LD condition for a LD treatment (10 boxes of which was for control, and the other 10 boxes for the theobroxide treatment). After planting them in advance, 20 boxes were left under the SD for a SD treatment as before (10 boxes of which is for the control, and the other 10 boxes for theobroxide treatment).” left out

potato [6] = settings: solution sprayed to leaflets of potato, non-inducing conditions; cited from earlier work

CC1=CC(O)C2OC2C1O (stereo not shown) [theobroxide, 3,6-dihydroxy-4,5-epoxy-1-methylcyclohexene]
potato tuber formation activity (potato [1]): strong potato tuber formation activity
Floral Differentiation Rate (%) Test 1 ([2]; long-day condition, six weeks, Test 1): 50% (5/10)
Floral Differentiation Rate (%) Test 2 ([2]; long-day condition, six weeks, Test 2): 40% (4/10)
Floral Differentiation Rate (%) Average ([2]; long-day condition, six weeks): 43.3%
Floral Differentiation Rate (%) Average ([2]; long-day condition, six weeks, listed as Theobroxide): 43.3%
difference in flower formation compared to the control ([2]; short-day condition): no difference; also recorded: not apparent difference
effect on stem elongation of morning glory (morning glory [3]): inhibitory effect
flower buds inducing activity (morning glory [4]): flower buds inducing activity
stem elongation (FIGS. 3A-B, FIG. 4), result in words ([5]; induction condition (LD), theobroxide treatment): stem elongation was suppressed
suppression effect on stem lengths compared to the control ([5]; long-day (LD) condition, 10^-3 M foliar spray, after six weeks): 37%
suppression of stem elongation compared to the control ([5]; long-day condition, 10^-3 M foliar spray, 5 ml every two days, fourth week): 37%
difference in stem lengths compared to the control ([5]; short-day condition (bolting non-inducing), 10^-3 M foliar spray): no difference; also recorded: not apparent difference
potato tuber formation (potato [6]): strong potato tuber formation
